In ChEMBL document CHEMBL2440066, “Acidic biphenyl derivatives: synthesis and biological activity of a new series of potent 5-HT(4) receptor antagonists” (Bioorg Med Chem, 2013):

Key:
[1] = Apparent permeability of the compound in human Caco2 cells at 1 uM; type: ADME, cell-based; details: Caco-2
[2] = Octanol-buffer partition coefficient, log D of the compound at pH 7.4; type: physicochemical
[3] = biological target: T1, 5-hydroxytryptamine receptor 4 (Homo sapiens, UniProt Q13639); test: Displacement of [125I]SB207710 from human recombinant 5-HT4 receptor
[4] = biological target: 5-hydroxytryptamine receptor 4 (Cavia porcellus, UniProt O70528); test: Displacement of [125I]SB207710 from 5-HT4 receptor in guinea pig brain membranes; type: cell membranes, Membrane
[5] = biological target: T1, 5-hydroxytryptamine receptor 4; test: Displacement of [3H]GR113808 from human 5HT4B receptor expressed in HEK293 cells; type: cell-based
3T3-L1 = test: Cytotoxicity against mouse 3T3L1 cells assessed as cell death at 5 ug/ml after 72 hrs by neutral red assay; type: cell-based; details: 3t3-l1, 72 h
[6] = biological target: Voltage-gated inwardly rectifying potassium channel KCNH2 (Homo sapiens, UniProt Q12809); test: Inhibition of human ERG expressed in HEK293 cells by patch-clamp technique; type: cell-based
[7] = biological target: T2, Type-1 angiotensin II receptor (Homo sapiens, UniProt P30556); test: Displacement of [tyrosyl-3,5-3H]angiotensin-2 from AT1 receptor (unknown origin) expressed in QBI-HEK293A cells after 2 hrs; type: cell-based, HEK293-A
T2 sequence (P30556 whole entry): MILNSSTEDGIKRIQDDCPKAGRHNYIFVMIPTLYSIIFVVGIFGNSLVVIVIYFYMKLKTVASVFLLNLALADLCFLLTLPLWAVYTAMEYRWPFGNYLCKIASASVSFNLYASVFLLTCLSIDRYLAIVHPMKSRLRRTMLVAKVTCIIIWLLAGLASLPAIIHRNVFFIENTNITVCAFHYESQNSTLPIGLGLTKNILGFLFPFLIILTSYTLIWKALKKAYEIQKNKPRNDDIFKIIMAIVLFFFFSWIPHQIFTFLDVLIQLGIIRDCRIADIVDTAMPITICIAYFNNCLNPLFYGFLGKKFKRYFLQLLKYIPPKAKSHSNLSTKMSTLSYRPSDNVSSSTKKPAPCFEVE

hERG (KCNH2) [8] = biological target: T3, hERG (KCNH2) (Homo sapiens, UniProt Q12809); test: Inhibition of human ERG expressed in HEK293 cells at 50 uM by patch-clamp technique; type: cell-based; details: HEK293 cells that express hERG
[9] = biological target: 5-hydroxytryptamine receptor 4 (Rattus norvegicus) (UniProt Q62758); test: Antagonist activity at 5-HT4 receptor in rat esophagus assessed as inhibition of 5-HT-induced relaxation; type: tissue-based
[10] = biological target: 5-hydroxytryptamine receptor 4 (Rattus norvegicus) (UniProt Q62758); test: Antagonist activity at 5-HT4 receptor in rat carbachol-contracted esophagus muscularis mucosae assessed as inhibition of 5-HT-induced relaxation
[11] = biological target: T1, 5-hydroxytryptamine receptor 4; test: Antagonist activity at human 5HT4B receptor expressed in HEK293 cells assessed as inhibition of 5HT-stimulated adenylyl cyclase activity; type: functional, cell-based
Rattus norvegicus [12] = test: Cmax in Sprague-Dawley rat assessed as 4'-((4-(((3,4-Dihydro-2H-[1,3]oxazino[3,2-a]indole-10-carbonyl)oxy)methyl)piperidin-1-yl)methyl)[1,1'-biphenyl]-2-carboxylic acid level at 10 mg/kg, po; type: ADME, organism-based; design: dose 10 mg/kg, route oral; details: in vivo
Rattus norvegicus [13] = test: AUC (0 to 6 hrs) in Sprague-Dawley rat assessed as 4'-((4-(((3,4-Dihydro-2H-[1,3]oxazino[3,2-a]indole-10-carbonyl)oxy)methyl)piperidin-1-yl)methyl)[1,1'-biphenyl]-2-carboxylic acid level at 10 mg/kg, po; type: ADME, organism-based, Plasma; design: time < 6 hr, dose 10 mg/kg, route oral; details: in vivo
Rattus norvegicus [14] = test: AUC (0 to infinity) in Sprague-Dawley rat assessed as 4'-((4-(((3,4-Dihydro-2H-[1,3]oxazino[3,2-a]indole-10-carbonyl)oxy)methyl)piperidin-1-yl)methyl)[1,1'-biphenyl]-2-carboxylic acid level at 10 mg/kg, po; type: ADME, organism-based, Plasma; design: time infinity, dose 10 mg/kg, route oral; details: in vivo
[15] = Tmax in Sprague-Dawley rat at 10 mg/kg, po; type: ADME, organism-based; design: dose 10 mg/kg, route oral; details: in vivo
Rattus norvegicus [16] = test: Elimination half life in Sprague-Dawley rat assessed as 4'-((4-(((3,4-Dihydro-2H-[1,3]oxazino[3,2-a]indole-10-carbonyl)oxy)methyl)piperidin-1-yl)methyl)[1,1'-biphenyl]-2-carboxylic acid level at 10 mg/kg, po; type: ADME, organism-based; design: dose 10 mg/kg, route oral; details: in vivo
[17] = AUC (0 to 6 hrs) in Sprague-Dawley rat at 10 mg/kg, po; type: ADME, organism-based; design: time < 6 hr, dose 10 mg/kg, route oral; details: plasma
Rattus norvegicus [18] = test: Tmax in Sprague-Dawley rat assessed as 4'-((4-(((3,4-Dihydro-2H-[1,3]oxazino[3,2-a]indole-10-carbonyl)oxy)methyl)piperidin-1-yl)methyl)[1,1'-biphenyl]-2-carboxylic acid level at 10 mg/kg, po; type: ADME, organism-based; design: dose 10 mg/kg, route oral; details: in vivo
[19] = Cmax in Sprague-Dawley rat at 10 mg/kg, po; type: ADME, organism-based; design: dose 10 mg/kg, route oral; details: in vivo
hERG (KCNH2) [20] = biological target: T3, hERG (KCNH2); test: Inhibition of human ERG expressed in HEK293 cells at 100 uM by patch-clamp technique; type: cell-based; details: HEK293 cells that express hERG
hERG (KCNH2) [21] = biological target: T3, hERG (KCNH2); test: Inhibition of human ERG expressed in HEK293 cells at 10 uM by patch-clamp technique; type: cell-based; details: HEK293 cells that express hERG

T1 sequence (Q13639 whole entry): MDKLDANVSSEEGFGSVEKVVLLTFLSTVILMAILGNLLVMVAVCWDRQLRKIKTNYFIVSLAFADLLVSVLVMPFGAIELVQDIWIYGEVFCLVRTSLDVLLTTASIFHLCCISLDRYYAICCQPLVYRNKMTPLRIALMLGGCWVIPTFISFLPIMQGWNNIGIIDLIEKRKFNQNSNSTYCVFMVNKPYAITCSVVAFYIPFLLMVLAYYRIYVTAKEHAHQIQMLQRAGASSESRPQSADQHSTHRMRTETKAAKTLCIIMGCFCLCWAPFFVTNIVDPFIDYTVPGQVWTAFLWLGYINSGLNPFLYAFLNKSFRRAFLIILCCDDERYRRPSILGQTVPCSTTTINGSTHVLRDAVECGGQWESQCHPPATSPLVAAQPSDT
Sequence of Voltage-gated inwardly rectifying potassium channel KCNH2 (Q12809 whole entry): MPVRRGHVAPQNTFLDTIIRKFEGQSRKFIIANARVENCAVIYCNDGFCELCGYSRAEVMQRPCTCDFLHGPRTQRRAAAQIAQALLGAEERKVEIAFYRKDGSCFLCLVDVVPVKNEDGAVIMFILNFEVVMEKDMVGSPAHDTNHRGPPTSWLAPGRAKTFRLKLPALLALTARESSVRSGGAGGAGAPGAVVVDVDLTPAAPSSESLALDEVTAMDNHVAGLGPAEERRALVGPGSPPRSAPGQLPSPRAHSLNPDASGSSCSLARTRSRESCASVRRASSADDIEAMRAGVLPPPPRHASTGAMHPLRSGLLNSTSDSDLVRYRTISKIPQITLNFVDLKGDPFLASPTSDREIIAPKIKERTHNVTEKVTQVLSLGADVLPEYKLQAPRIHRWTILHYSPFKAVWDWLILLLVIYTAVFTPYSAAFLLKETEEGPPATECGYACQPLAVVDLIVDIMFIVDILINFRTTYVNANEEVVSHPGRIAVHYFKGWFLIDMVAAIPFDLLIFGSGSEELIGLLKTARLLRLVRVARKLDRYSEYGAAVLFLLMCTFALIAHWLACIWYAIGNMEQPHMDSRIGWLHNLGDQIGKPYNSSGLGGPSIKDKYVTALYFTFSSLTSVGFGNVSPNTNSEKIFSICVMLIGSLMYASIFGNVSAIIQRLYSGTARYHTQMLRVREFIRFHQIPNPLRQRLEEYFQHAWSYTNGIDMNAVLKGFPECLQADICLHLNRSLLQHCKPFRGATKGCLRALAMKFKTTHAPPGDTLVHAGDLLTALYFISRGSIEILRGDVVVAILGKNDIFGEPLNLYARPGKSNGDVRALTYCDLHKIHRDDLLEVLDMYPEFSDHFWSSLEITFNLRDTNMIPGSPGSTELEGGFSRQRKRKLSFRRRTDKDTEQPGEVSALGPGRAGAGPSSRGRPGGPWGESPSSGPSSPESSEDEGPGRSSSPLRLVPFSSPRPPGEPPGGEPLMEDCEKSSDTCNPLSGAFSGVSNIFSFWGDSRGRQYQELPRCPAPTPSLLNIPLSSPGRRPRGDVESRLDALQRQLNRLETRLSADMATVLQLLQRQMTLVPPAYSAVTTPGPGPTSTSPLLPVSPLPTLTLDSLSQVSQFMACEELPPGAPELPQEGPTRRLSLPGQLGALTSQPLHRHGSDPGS
T3 sequence (Q12809 whole entry): as above
Sequence of 5-hydroxytryptamine receptor 4 (Rattus norvegicus) (Q62758 whole entry): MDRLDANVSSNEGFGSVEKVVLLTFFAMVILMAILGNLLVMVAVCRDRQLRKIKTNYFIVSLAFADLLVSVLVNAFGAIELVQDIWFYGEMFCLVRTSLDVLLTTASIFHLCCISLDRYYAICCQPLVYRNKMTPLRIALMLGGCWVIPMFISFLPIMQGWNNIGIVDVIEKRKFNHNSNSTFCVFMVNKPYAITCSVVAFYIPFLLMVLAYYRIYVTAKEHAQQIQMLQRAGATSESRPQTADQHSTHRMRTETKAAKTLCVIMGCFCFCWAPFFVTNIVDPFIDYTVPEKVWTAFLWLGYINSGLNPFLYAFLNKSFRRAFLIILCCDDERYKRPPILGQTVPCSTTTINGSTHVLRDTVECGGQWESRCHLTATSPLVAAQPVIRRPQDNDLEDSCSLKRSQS
Sequence of 5-hydroxytryptamine receptor 4 (Cavia porcellus, UniProt O70528) (O70528 whole entry): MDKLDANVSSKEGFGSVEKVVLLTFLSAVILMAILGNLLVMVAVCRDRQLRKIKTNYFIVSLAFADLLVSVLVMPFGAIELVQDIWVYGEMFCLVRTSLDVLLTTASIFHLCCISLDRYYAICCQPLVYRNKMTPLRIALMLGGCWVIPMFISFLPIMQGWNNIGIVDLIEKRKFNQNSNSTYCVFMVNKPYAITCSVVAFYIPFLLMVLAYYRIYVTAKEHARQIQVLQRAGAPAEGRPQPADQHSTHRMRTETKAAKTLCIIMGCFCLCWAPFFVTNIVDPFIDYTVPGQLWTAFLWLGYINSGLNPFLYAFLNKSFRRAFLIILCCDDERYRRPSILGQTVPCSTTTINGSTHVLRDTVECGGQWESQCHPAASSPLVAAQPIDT

CC(C)(C)C(=O)OCOC(=O)c1ccccc1-c1ccc(CN2CCC(COC(=O)c3c4n(c5ccccc35)CCCO4)CC2)cc1.CS(=O)(=O)O
Papp at 1 µM [1]: 9 ×10⁻⁶ cm/s
logD [2]: 4.7

CCCCN1CCC(CNC(=O)c2c3n(c4cc(O)ccc24)CCCO3)CC1
Ki [3]: 794 nM
Ki [4]: 794 nM

O=C(NCC1CCNCC1)c1c2n(c3ccccc13)CCCO2
Ki [3]: 63.1 nM
Ki [4]: 63.1 nM

O=C(OCC1CCN(Cc2ccc(-c3ccccc3-c3nn[nH]n3)cc2)CC1)c1c2n(c3ccccc13)CCCO2
Ki [5]: 2.51 nM
Activity (3T3-L1): 0%
Papp at 1 µM [1]: 2.9 ×10⁻⁶ cm/s
IC50 [6]: 27500 nM
Ki [7]: > 10000 nM
logD [2]: 1.6
inhibition at 50 µM (hERG (KCNH2) [8]): 35%

CC(C)NCC(O)c1ccc(NS(C)(=O)=O)cc1 (stereo unspecified) [SOTALOL]
Papp at 1 µM [1]: 0.8 ×10⁻⁶ cm/s

O=C(O)c1ccccc1-c1ccc(CN2CCC(CNC(=O)c3c4n(c5ccccc35)CCCO4)CC2)cc1
Ki [5]: 0.631 nM
Ki [7]: > 10000 nM

COc1ccc(NC(=O)OCC2CCN(CCNS(C)(=O)=O)CC2)c(-c2nc(C)no2)c1
pKb [9]: 8.1

COc1ccc(CCCN2CCC(CCC(=O)c3cc(Cl)c(N)c4c3OCCO4)CC2)cc1
pKb [10]: 10.6

CC(C)CCOC(=O)c1ccccc1-c1ccc(CN2CCC(COC(=O)c3c4n(c5ccccc35)CCCO4)CC2)cc1.CS(=O)(=O)O
Papp at 1 µM [1]: 5.4 ×10⁻⁶ cm/s
logD [2]: 4.9

CC(C)(C)C(=O)OCn1nnc(-c2ccccc2-c2ccc(CN3CCC(COC(=O)c4c5n(c6ccccc46)CCCO5)CC3)cc2)n1.CS(=O)(=O)O
Papp at 1 µM [1]: 5.1 ×10⁻⁶ cm/s
logD [2]: 4.3

Nc1c(Cl)cc(C(=O)CCC2CCN(CCCc3ccccc3)CC2)c2c1OCCO2
pKb [10]: 9.6

Cc1noc(-c2ccc(F)cc2NC(=O)OCC2CCN(CCNS(C)(=O)=O)CC2)n1
pKb [9]: 8.9

O=C(NCC1CCN(Cc2ccc(-c3ccccc3-c3nnn[nH]3)cc2)CC1)c1c2n(c3ccccc13)CCCO2
Ki [5]: 3.98 nM
pKb [11]: 9.7
Activity (3T3-L1): 0%
Ki [7]: > 10000 nM

CC(=O)OCOC(=O)c1ccccc1-c1ccc(CN2CCC(COC(=O)c3c4n(c5ccccc35)CCCO4)CC2)cc1.CS(=O)(=O)O
Papp at 1 µM [1]: 1.4 ×10⁻⁶ cm/s
logD [2]: 4.5

COC(=O)c1ccccc1-c1ccc(CN2CCC(CNC(=O)c3c4n(c5ccccc35)CCCO4)CC2)cc1
Ki [5]: 0.0631 nM
Ki [7]: > 10000 nM

CC(O)CCN1CCC(CNC(=O)c2c3n(c4ccccc24)CCCO3)CC1 (stereo unspecified)
Ki [3]: 0.794 nM
Ki [4]: 0.794 nM

Cc1noc(-c2ccccc2NC(=O)OCC2CCN(CCNS(C)(=O)=O)CC2)n1
pKb [9]: 10.8

CCCCOC(=O)c1ccccc1-c1ccc(CN2CCC(COC(=O)c3c4n(c5ccccc35)CCCO4)CC2)cc1.CS(=O)(=O)O
Cmax (Rattus norvegicus [12]): 10 ng/mL
AUC (Rattus norvegicus [13]): 39 ng·h/mL
Papp at 1 µM [1]: 13.9 ×10⁻⁶ cm/s
AUC (Rattus norvegicus [14]): 124 ng·h/mL
Tmax [15]: 6 h
beta t1/2 (Rattus norvegicus [16]): 9.92 h
logD [2]: 4.9
AUC(0-t) at 6 h [17]: 313 ng·h/mL
Tmax (Rattus norvegicus [18]): 2 h
Cmax [19]: 80 ng/mL

CS(=O)(=O)NCCN1CCC(CCC(=O)c2cc(Cl)c(N)c3c2OCCO3)CC1
pKb [10]: 9.9

CS(=O)(=O)O.O=C(O)c1ccccc1-c1ccc(CN2CCC(COC(=O)c3c4n(c5ccccc35)CCCO4)CC2)cc1
Ki [5]: 0.0501 nM
pKb [11]: 9.8
Activity (3T3-L1): 14%
Papp at 1 µM [1]: 0.8 ×10⁻⁶ cm/s
IC50 [6]: 47500 nM
Ki [7]: 1580 nM
inhibition at 100 µM (hERG (KCNH2) [20]): 31%
logD [2]: 1.3

Cl.O=C(OCc1ccccc1)c1ccccc1-c1ccc(CN2CCC(COC(=O)c3c4n(c5ccccc35)CCCO4)CC2)cc1
Papp at 1 µM [1]: 1.1 ×10⁻⁶ cm/s
logD [2]: 5.1

O=C(OCC1CCN(Cc2ccc(-c3ccccc3-c3nnn[nH]3)cc2)CC1)c1c2n(c3ccccc13)CCCO2
pKb [11]: 10.6

Cn1cc(C(=O)OCC2CCN(CCNS(C)(=O)=O)CC2)c2ccccc21
pKb [11]: 8.7

CS(=O)(=O)O.Cc1oc(=O)oc1COC(=O)c1ccccc1-c1ccc(CN2CCC(COC(=O)c3c4n(c5ccccc35)CCCO4)CC2)cc1
Papp at 1 µM [1]: 16.1 ×10⁻⁶ cm/s
logD [2]: 4.6

COC(=O)c1ccccc1-c1ccc(CN2CCC(COC(=O)c3c4n(c5ccccc35)CCCO4)CC2)cc1.CS(=O)(=O)O
Cmax (Rattus norvegicus [12]): 30 ng/mL
Ki [5]: 0.00126 nM
pKb [11]: 10.6
Activity (3T3-L1): 75%
AUC (Rattus norvegicus [13]): 114 ng·h/mL
Papp at 1 µM [1]: 25 ×10⁻⁶ cm/s
AUC (Rattus norvegicus [14]): 542 ng·h/mL
IC50 [6]: 131 nM
Ki [7]: > 10000 nM
Tmax [15]: 2 h
beta t1/2 (Rattus norvegicus [16]): 15.6 h
logD [2]: 4.5
AUC(0-t) at 6 h [17]: 1110 ng·h/mL
Tmax (Rattus norvegicus [18]): 1 h
Cmax [19]: 244 ng/mL
inhibition at 10 µM (hERG (KCNH2) [21]): 2%

CCCCN1CCC(CNC(=O)c2c3n(c4ccccc24)CCCO3)CC1 [PIBOSEROD]
pKb [11]: 9.5
Ki [7]: > 10000 nM
Ki [3]: 1.58 nM
Ki [4]: 1.58 nM

CCCCN1CCC(CCC(=O)c2cc(Cl)c(N)c3c2OCCO3)CC1
pKb [10]: 9.9
